From patent EP3153515A1, “COMPOUNDS FOR INHIBITING HEPATITIS C VIRUS, PHARMACEUTICAL COMPOSITIONS AND USES THEREOF” (priority 2014, dated 2015)
pEC50: −log10 of the molar value. Where two headings read alike, the source gives them in different places.

Legend:
HCV NS5A replicon GT-6a = assay: HCV NS5A replicon anti-viral activity (EC50), GT-6a; format: cell-based; details: Hepatitis C virus, genotype 1a / genotype 6a; GT-6a replicon; read-out: Inhibitory activity against various HCV-NS5A subtypes(EC50, GT-1a to GT-6a) GT-6a
Excerpt: (§1) The autonomous replication level of HCV in liver cells in vitro is very low, and the only animal that can be infected by HCV is chimpanzee, therefore there is no appropriate animal model currently available for preclinical pharmacodynamic study. Some researchers have transplanted human liver tissue infected with HCV in vitro into immune deficient mice to establish an in vivo mice model, but these mice are hard to raise and the model is unstable and short of normal immunologic reaction. Moreover, the model has significant difference with the pathogenic process of hepatitis C, therefore, it has not been used for animal model to assess the action of anti-HCV medicine yet. The progress of the development of anti-viral drugs for the treatment of HCV infection had been very slow because the pathogenic mechanism and life cycle of HCV were unclear before 1999 due to the lack of cell culture system for effective multiplication of HCV. But researchers managed to achieve a breakthrough in 1999 after numerous attempts. An effective cell culture model-replicon system in which HCV is capable of autonomous replication in transfected human hepatic carcinoma cell line Huh-7 had been established in that year on the basis of subgenomic HCV RNA built with genetic engineering.
(§2) The above-mentioned cell culture model-replicon system which has been widely accepted in the industry is used in this invention for ex vivo experiments and subsequent assessment of drugs based on the experiment results.
(§3) The therapeutic effect of the compounds of this invention on HCV infection can be preliminarily assessed through the following preclinical in vitro inhibitory action test and can be further confirmed in clinical trials. Other methods used in the invention are also quite familiar to professionals in this field with ordinary technical knowledge. Method for testing the anti-viral activity(EC50) in HCV NS5A replicon system: • The viral replication level in infected cells was determined by testing Renilla luciferase with the newly established dual-reporter gene replicon system. There was a good linear relation between the expression level of the reporter gene and the HCV RNA replication level and viral protein expression level. The anti-viral activity was determined for 3 replicates in 3 replicate cells at five(5) 1:2 diluted concentration gradients, with 1 to 2 positive controls. The EC50 of the compounds was calculated in the end.
(§4) The compounds of the invention, or their stereoisomers, tautomers, esterified or amidated prodrugs, or pharmaceutically acceptable salts and mixtures have been subjected to test to determined their therapeutic effects in the treatment of HCV infection. […] Moreover, the results of 6a-6ep(Ia), 6fa-6gq(Ib) and reference compounds Ref-1(BMS-790052), Ref-2(GS5885), Ref-3 in HCV-NS5 inhibition test reveal that the cyclopentanyl/hexamethyleneamino radical containing linear polypeptide compounds 6a-6ep, 6fa-6gq and reference compounds Ref-1, Ref-2, Ref-3 have good HCV inhibitory results. […] The replicons GT-1a, GT-lb, GT-2a, GT-3a, GT-4a, GT-5a and GT-6a used for the test are routine replicons commercially available in this field. Table 1: HCV NS5A replicon inhibitory activity test results of compounds (6a-6gq) of the invention

HCV NS5A replicon GT-4a = assay: HCV NS5A replicon anti-viral activity (EC50), GT-4a; format: cell-based; details: Hepatitis C virus, genotype 1a / genotype 4a / genotype 6a, read-out: Inhibitory activity against various HCV-NS5A subtypes(EC50, GT-1a to GT-6a) GT-4a
Excerpt: as §1, §2, §3, §4

HCV NS5A replicon GT-5a = assay: HCV NS5A replicon anti-viral activity (EC50), GT-5a; format: cell-based; details: Hepatitis C virus, genotype 1a / genotype 5a / genotype 6a, read-out: Inhibitory activity against various HCV-NS5A subtypes(EC50, GT-1a to GT-6a) GT-5a
Excerpt: as §1, §2, §3, §4

HCV NS5A replicon GT-1a = assay: HCV NS5A replicon anti-viral activity (EC50), dual-reporter Renilla luciferase, GT-1a; format: cell-based; details: for inhibitory activity compared with Ref-1(BMS-790052), Ref-2(GS5885), Ref-3 and Ref-4 (in words): comparison drawn from Table 2
Excerpt: as §1, §2, §3, §4

HCV NS5A replicon GT-2a = assay: HCV NS5A replicon anti-viral activity (EC50), GT-2a; format: cell-based; details: Hepatitis C virus, genotype 1a / genotype 2a / genotype 6a; GT-2a replicon; read-out: Inhibitory activity against various HCV-NS5A subtypes(EC50, GT-1a to GT-6a) GT-2a
Excerpt: as §1, §2, §3, §4

HCV NS5A replicon GT-3a = assay: HCV NS5A replicon anti-viral activity (EC50), GT-3a; format: cell-based; details: Hepatitis C virus, genotype 1a / genotype 3a / genotype 6a, read-out: Inhibitory activity against various HCV-NS5A subtypes(EC50, GT-1a to GT-6a) GT-3a
Excerpt: as §1, §2, §3, §4

HCV NS5A replicon GT-lb = assay: HCV NS5A replicon anti-viral activity (EC50), GT-1b; format: cell-based; details: Hepatitis C virus, genotype 1a / genotype 6a, read-out: Inhibitory activity against various HCV-NS5A subtypes(EC50, GT-1a to GT-6a) GT-lb
Excerpt: as §1, §2, §3, §4

ICR mice = assay: MTD screening test (acute toxicity study) in mice; format: in vivo; details: high dosage
Protocol: Method: ICR mice, 10 mice/group, 5 males and 5 females. A treatment group and a control group are set up for every drugs, respectively, mice in control group were administered 0.5%CMC-Na solution, i.e. the solvent of the drugs. The mice were fasted overnight but granted free access to water before the administration. Their body weight before the administration of drugs is in the range of 18.8∼24.1 g. The mice were administered the drugs by peroral lavage at the dosage of 40 mL/kg. The mice were closely observed 3 hours after the administration and twice a day afterwards for 7 days, one in the morning and one in the afternoon. At the end of the observation period, 2 mice (1 male and 1 female) were randomly selected from each treatment group and subjected to histopathological examination of part of their tissues and organs.
Two third of the novel heterocyclic compounds that have good HCV inhibiting activity (EC50: <0.05nM) after administration of the drugs by lavage at the dosage of 2000mg/kg yield a survival rate of 100%. […] Two third of the novel compounds that show high HCV inhibiting activity have very low overall toxicity (survive rate of mice after administration: 100%). It is believed that these compounds are generally nontoxic.

[1] = Hepatitis C virus, GT1A, GT-1a replicon, read-out: NS5A Inhibitory Activity (EC50 of GT-1a subtype inhibition)
[2] = Hepatitis C virus, genotype 1a / genotype 6a, read-out: Inhibitory activity against various HCV-NS5A subtypes(EC50, GT-1a to GT-6a) GT-1a
[3] = Hepatitis C virus, GT1A, read-out: NS5A Inhibitory Activity (EC50 of GT-1a subtype inhibition)

Row | SMILES | pEC50 (HCV NS5A replicon GT-6a) | pEC50 (HCV NS5A replicon GT-4a) | pEC50 (HCV NS5A replicon GT-5a) | pEC50 (HCV NS5A replicon GT-1a; [1]) | pEC50 (HCV NS5A replicon GT-1a; [2]) | pEC50 (HCV NS5A replicon GT-2a) | pEC50 (HCV NS5A replicon GT-3a) | pEC50 (HCV NS5A replicon GT-lb) | also measured
1 | COC(=O)N[C@H](C(=O)N1CC=C[C@H]1c1ncc(-c2ccc(-c3ccc(-c4c[nH]c([C@@H]5CCCN5C(=O)[C@@H](NC(=O)OC)C(C)C)n4)cc3)cc2)[nH]1)C(C)C [6ba] | 9.66 | 11.00 | 10.64 | 9.00 to 12.00 | 10.41 | 10.80 | 9.76 | 10.92 | –
2 | COC(=O)N[C@H](C(=O)N1CCC[C@H]1c1nc(-c2ccc(-c3ccc(-c4cnc([C@@H]5C=CCN5C(=O)[C@H](NC(=O)OC)c5ccccc5)[nH]4)cc3)cc2)c[nH]1)C(C)C [6dy] | 10.62 | 11.10 | 10.64 | 9.00 to 12.00 | 10.96 | 11.22 | 10.82 | 10.85 | inhibitory activity compared with Ref-1(BMS-790052), Ref-2(GS5885), Ref-3 and Ref-4 (in words) (HCV NS5A replicon GT-1a): significantly superior; toxicity (in words) (ICR mice): low toxicity at high dosage
3 | COC(=O)N[C@H](C(=O)N1CC=C[C@H]1c1ncc(-c2ccc(-c3cc4sc(-c5cnc([C@@H]6CCCN6C(=O)[C@H](NC(=O)OC)c6ccccc6)[nH]5)cc4s3)cc2)[nH]1)C(C)C [6fd] | 10.26 | 11.30 | 10.89 | 9.00 to 12.00 | 10.70 | 11.15 | 10.59 | 11.30 | –
4 | COC(=O)N[C@H](C(=O)N1CCC[C@H]1c1ncc(-c2ccc(-c3cc4sc(-c5cnc([C@@H]6C=CCN6C(=O)[C@H](NC(=O)OC)c6ccccc6)[nH]5)cc4s3)cc2)[nH]1)C(C)C [6fg] | 10.64 | 10.92 | 10.54 | 9.00 to 12.00 | 11.05 | 11.10 | 10.62 | 10.89 | inhibitory activity compared with Ref-1(BMS-790052), Ref-2(GS5885), Ref-3 and Ref-4 (in words) (HCV NS5A replicon GT-1a): significantly superior
5 | COC(=O)N[C@@H](C(=O)N1CC=C[C@H]1c1ncc(-c2ccc(-c3csc4c(-c5c[nH]c([C@@H]6CCCN6C(=O)[C@H](NC(=O)OC)c6ccccc6)n5)csc34)cc2)[nH]1)c1ccccc1 [6fm] | – | – | – | 9.00 to 12.00 | – | – | – | – | toxicity (in words) (ICR mice): low toxicity at high dosage
6 | COC(=O)N[C@H](C(=O)N1CCC[C@H]1c1nc2ccc(-c3csc4c(-c5ccc(-c6ccc7nc([C@@H]8C=CCN8C(=O)[C@H](NC(=O)OC)c8ccccc8)[nH]c7c6)cc5)csc34)cc2[nH]1)C(C)C [6gq] | – | – | – | 9.00 to 12.00 | – | – | – | – | –
7 | CC(C)[C@H](NC(=O)OC(C)(C)C)C(=O)N1C[C@H](OC(=O)N2Cc3cc4c(cc3C2)OCO4)C[C@H]1c1nc(-c2ccc(-c3ccc(-c4cnc([C@@H]5C[C@@H](OC(=O)N6Cc7cc8c(cc7C6)OCO8)CN5C(=O)[C@@H](NC(=O)OC(C)(C)C)C(C)C)[nH]4)cc3)cc2)c[nH]1 [6p] | – | – | – | – | – | – | – | – | pEC50 (HCV NS5A replicon GT-1a; [3]): < 7.30
8 | COC(=O)N[C@H](C(=O)N1CCC[C@H]1c1nc(-c2ccc(-c3ccc(-c4c[nH]c([C@@H]5C[C@@H](Oc6nc7ccccc7nc6-c6cccs6)CN5C(=O)[C@@H](NC(=O)OC)C(C)C)n4)cc3)cc2)c[nH]1)C(C)C [6w] | – | – | – | < 7.30 | – | – | – | – | –
9 | COC(=O)N[C@H](C(=O)N1CCC[C@H]1c1nc(-c2ccc(-c3ccc(-c4c[nH]c([C@@H]5C[C@H](Oc6nc7ccccc7nc6-c6cccs6)CN5C(=O)[C@@H](NC(=O)OC)C(C)C)n4)cc3)cc2)c[nH]1)C(C)C [6x] | – | – | – | 9.00 to 12.00 | – | – | – | – | –
10 | COC(=O)N[C@H](C(=O)N1CCC[C@H]1c1nc(-c2ccc(-c3ccc(-c4cnc([C@@H]5CCCN5C(=O)[C@@H](NC(=O)OC)C(C)C)[nH]4)cc3)cc2)c[nH]1)C(C)C [Ref-1, BMS-790052, reference compound] | 9.93 | 10.96 | 10.44 | 9.00 to 12.00 | 10.28 | 10.54 | 9.66 | 10.68 | –
11 | COC(=O)N[C@H](C(=O)N1CC2(CC2)C[C@H]1c1nc(-c2ccc3c(c2)C(F)(F)c2cc(-c4ccc5[nH]c([C@@H]6[C@H]7CC[C@H](C7)N6C(=O)[C@@H](NC(=O)OC)C(C)C)nc5c4)ccc2-3)c[nH]1)C(C)C [Ref-2, GS5885, reference compound] | – | – | – | – | 10.06 | – | – | – | pEC50 (HCV NS5A replicon GT-1a; [3]): 9.00 to 12.00
12 | COC(=O)N[C@@H](C(=O)N1CCC[C@H]1c1ncc(-c2ccc(-c3cc4sc(-c5cnc([C@@H]6CCCN6C(=O)[C@H](NC(=O)OC)c6ccccc6)[nH]5)cc4s3)cc2)[nH]1)c1ccccc1 [Ref-3, reference compound] | – | – | – | 9.00 to 12.00 | 10.29 | – | – | – | –
13 | COC(=O)N[C@H](C(=O)N1CCC[C@H]1c1nc2cc(-c3csc4c(-c5ccc(-c6c[nH]c([C@@H]7CCCN7C(=O)[C@H](NC(=O)OC)c7ccccc7)n6)cc5)csc34)ccc2[nH]1)C(C)C [Ref-4, IDX-719, reference compound] | – | – | – | – | – | – | – | – | pEC50 (HCV NS5A replicon GT-1a; GT-1a replicon, read-out: Inhibitory activity against various HCV-NS5A subtypes(EC50, GT-1a to GT-6a) GT-1a): 10.66; pEC50 (HCV NS5A replicon GT-1a; GT-1a replicon, read-out: NS5A Inhibitory Activity (EC50 of GT-1a subtype inhibition)): 9.00 to 12.00
